# Experimental data as given in patent US20050214886A1, “TNF modulation” (YEDA RESEARCH AND DEVELOPMENT CO. LTD., priority 1995, published 2005).
# System: 26 kDa TNF molecules in HeLa-M9 cells
# Assay: [32P] metabolic labeling and immunoprecipitation: phosphorylation of 26 kDa TNF
# Format: cell-based, human
# Conditions: preliminary experiments, data not shown
# Excerpt: The intracellular region is the only part of the TNF molecule accessible for phosphorylation by cytoplasmic protein kinases. The specific kinases involved in TNF phosphorylation are not known, nor is it known if, and in what way, the activity of these kinases is subject to modulation by agents that affect TNF activity. Evidently, the phosphorylation observed in the HeLa-M9 cells, in which TNF was synthesized without stimulation, reflects the function of kinase(s) that constitutively act in these cells. On the other hand, the phosphorylation observed in the LPS-stimulated MM6 cells could involve effects of LPS activated protein kinases (Liu et al., 1994; Han et al., 1995). The serine at position −50 seems to be a suitable substrate for phosphorylation by protein kinase C (Kennelly and Krebs, 1991).
# Labeling of cells with [^35S]Met or [^32P) orthophosphate was performed by incubation in Met-free or phosphate-free medium, supplemented with 5 or 10% FCS, that had been dialyzed against either PBS or 0.9% NaCl, respectively. […]
# Immunoprecipitation was performed using sheep anti-TNF antiserum or, as a control, non-immune sheep serum, at a dilution of 1:200. […] The immunoprecipitated proteins were analyzed by SDS-PAGE under reducing conditions (12% acrylamide). […]
smiles,measurement,value
CCCCCCCCCCCCCC(=O)O[C@@H]1[C@@H](C)[C@@]2(O)[C@@H](C=C(CO)C[C@]3(O)C(=O)C(C)=C[C@@H]23)[C@@H]2C(C)(C)[C@]12OC(C)=O [4β-phorbol-12-myristate-13-acetate],increase of phosphorylation of the 26 kDa TNF molecules,did not observe any increase of phosphorylation
